Assays:
Format in all cases: in vivo, Caenorhabditis elegans
[1] = system: glp-4(bn2) worms exposed to P. aeruginosa isolate PA2-61; experiment: Liquid killing assay with cystic fibrosis isolate; conditions: isolate PA2-61, serial 2-fold dilutions from 50 µM to 12.5 μM
Method: We also tested these strains against a P. aeruginosa isolate from a pediatric cystic fibrosis patient, P. aeruginosa PA2-61, that we previously characterized ([22]).
The minimum effective concentration was calculated from the lowest concentration that retained statistically significant rescue of glp-4(bn2) C. elegans, a temperature-sensitive sterile strain, from exposure to P. aeruginosa PA14. […] Compounds were added in serial 2-fold dilutions from 50 µM to 12.5 μM. *, P < 0.05; **, P < 0.01; ***, P < 0.001. P values were calculated using Student’s t test. At least six wells containing 20 worms each per condition per replicate were used for determination of liquid killing. EC values were calculated based on at least three biological replicates. Error bars represent the standard error of the mean.
Liquid killing of C. elegans was performed as previously described with some changes ([91]). In brief, an overnight culture of LB medium was inoculated with a single colony of Pseudomonas aeruginosa strain PA14. Then, 400 µl of culture was spread onto a 10-cm slow-kill agar plate ([91]) and grown for 24 h at 37°C, followed by 24 h at 25°C. Bacteria were scraped from the plate, resuspended in S Basal medium, and added to 384-well plates with small molecules dissolved in DMSO. Solution in wells contained a final concentration of 40% SK media, 59% S Basal medium, 1% DMSO, and small molecules. For all liquid-based killing assays, solvent control wells contained 1% DMSO. MgSO4 and CaCl2 (300 µM) and cholesterol (1.6 µg/ml) were added to aid in production of virulence factors. Worms were sorted into 384-well plates using a COPAS FlowSort (Union Biometrica, Holliston, MA), incubated at 25°C until the DMSO control was roughly 35 to 55% dead, washed four times using an EL406 microplate washer (BioTek, VT), and stained with 50 μl of Sytox Orange at 1 µM to fluorescently stain dead worms. Wells were imaged in bright-field and RFP channels using the BioTek Cytation5, followed by image analysis using the CellProfiler software package to calculate fraction of dead worms in each well. […]

[2] = system: SKN-1/Nrf pathway; experiment: gst-4p::GFP reporter; conditions: 100 μM in 1% DMSO, no pathogen
Source text: To test activation of these pathways, worms carrying GFP-based reporters for the SKN-1/Nrf, PMK-1/p38 MAPK, and DAF-16/FOXO pathways (gst-4p::GFP, irg-5p::GFP, and DAF-16::GFP, respectively) were exposed to each compound in S Basal medium in the absence of the pathogen.
FIG 4 A subset of LK molecules activates reporters for the SKN-1/Nrf2 or PMK-1/p38 MAPK pathways. […] Also present are DMSO and ethanol negative controls for LK compounds and juglone, respectively. The fluorescence intensity was normalized to that of DMSO. (B) Worms carrying an irg-5p::GFP reporter for PMK-1/p38 MAPK activity were incubated at 25, 50, or 100 μM in 1% DMSO. Positive and negative controls consisted of 100 μM RPW-24 in 1% DMSO and 1% DMSO alone. Fluorescence was measured at 24 h. For both panels, ∼50 worms were used per well, and at least three wells were used per condition for each biological replicate. Mean values from at least three biological replicates are shown. *, P < 0.05; **, P < 0.01; ***, P < 0.001 compared to the solvent control. P values were calculated using Student’s t test. Error bars represent the standard error of the mean.
Worms were washed three times prior to incubation with compounds or DMSO control and diluted in S Basal medium supplemented with E. coli OP50 (OD600 = 0.08) as a food source. The fluorescence fold increase for gst-4p::GPF was taken as the fluorescence of each well and was normalized to the well’s fluorescence at 0 h. irg-5p::GFP, hsp-16.1p::GFP, rpt-6p::GFP, and hsp-4::GFP fluorescence was quantified as the fluorescence/worm area. For gst-4p::GFP, 100 µM ethanol-solubilized juglone was used as a positive control. Ethanol was also tested at 1% (vol/vol) as a control. For irg-5p::GFP, RPW-24 (100 µM) was used as a positive control. For quantification of nuclear localization of GFP fusion reporters, worms were scored as either localization positive or localization negative. DAF-16::GFP worms were scored as localization positive if >5 nuclei within the worm had localized GFP. All worms were imaged at the L4-young adult stage. […]

[3] = system: glp-4(bn2) worms reared on RNAi, exposed to P. aeruginosa PA14; experiment: P. aeruginosa liquid killing assay after RNAi knockdown; conditions: for Rescue in liquid killing after mdt-15(RNAi): P. aeruginosa PA14, LK56 at 32 µM; for Rescue in liquid killing after RNAi of a panel of phosphatases, kinases, transcription factors and most upregulated genes: Fig S4A
Source text: Based on the presence of effectors for well-known innate immune pathways in the transcriptional profiles of C. elegans exposed to LK molecules, we predicted that the compounds were acting through one or more of these pathways, despite the low levels of reporter activation. To test this, RNAi was used to knock down daf-16/FOXO, elt-2/GATA, pmk-1/p38 MAPK, atf-7/ATF7, or skn-1/Nrf2. Sterile, young adult glp-4(bn2) worms were then exposed to P. aeruginosa under liquid killing conditions in the presence of either DMSO or one of the immunostimulatory compounds.
RNAi conditions measured at different time points are represented by different graphs within the same panel. […] At least six wells, containing 20 worms each, were used per biological replicate to determine survival for each condition, and averages from at least three biological replicates are shown. *, P < 0.05; **, P < 0.01; ***, P < 0.001. P values were calculated using Student’s t test. Error bars represent standard error of the mean.
(A) Sterile, young adult glp-4(bn2) worms were reared on RNAi targeting irid-28, F38B2.4, T24B8.5, mex-5, Y105C5B.15, comt-4, or empty vector and then exposed to P. aeruginosa in the liquid killing assay. (B) Sterile, young adult glp-4(bn2) worms were reared on RNAi targeting met-2, osm-8, rde-4, oga-1, daf-2, lin-35, glp-1, dpy-10, or dpy-9 and then exposed to P. aeruginosa in the liquid killing assay. These genes were chosen using WormEXP with the criterion that gene expression after mutation would be similar (in terms of upregulation and downregulation) to exposure to LK56. Endpoints were collected at different times (to allow DMSO-treated worms to be approximately 30 to 50% dead). Assays collected at different time points are shown on different graphs. […] For each experiment, three biological replicates were performed, with each replicate comprised of six wells with 20 worms/well. Error bars represent standard error of the mean. *, P < 0.05; **, P < 0.01; ***, P < 0.001. P values were calculated using Student’s t test. Download FIG S4, PDF file, 0.2 MB.
Due to its strong rescue and unique transcriptional profile, we also created a panel of genes to test for LK56. […] This effect was specific, since mdt-15(RNAi) had no effect on the ability of LK35 or LK38 to rescue in this assay (Fig. 7B). Importantly, MDT-15 was also required for LK56-mediated rescue in E. faecalis and S. aureus pathogenesis assays (Fig. 7C).
FIG 7 Rescue from pathogens by LK56 requires […]. (A and B) Young adult glp-4(bn2) worms reared on vector or mdt-15(RNAi) were incubated with P. aeruginosa strain PA14 in the liquid killing assay with or without LK56 at 32 µM. (B) Young adult glp-4(bn2) worms reared on vector or mdt-15(RNAi) were exposed to P. aeruginosa PA14 in the liquid killing assay in the presence of LK35, LK38, or DMSO. (C) Young adult glp-4(bn2) worms reared on vector or mdt-15(RNAi) and then exposed to E. faecalis or S. aureus in liquid-based assays in the presence or absence of LK56 at 32 µM. (D) Young adult glp-4(bn2) worms reared on vector, nhr-49(RNAi), or nhr-45(RNAi) were incubated with P. aeruginosa PA14 in the liquid killing assay with or without LK56 at 32 µM. Each replicate included at least six wells, with approximately 20 worms per well. The data shown are mean values from a representative replicate. *, P < 0.05; **, P < 0.01; ***, P < 0.001. P values were calculated using Student’s t test. Error bars represent the standard error of the mean. At least three biological replicates were performed.
MDT-15 partners with at least two different nuclear hormone receptors, NHR-45 and NHR-49, to regulate gene expression.

| SMILES | Dose dependence of rescue in liquid killing [1] | gst-4p::GFP induction (SKN-1/Nrf activation) [2] | Rescue in liquid killing after nhr-49(RNAi) ([3]; P. aeruginosa PA14, 32 µM) | Rescue in liquid killing after mdt-15(RNAi) [3] | Rescue in liquid killing after RNAi of a panel of phosphatases, kinases, transcription factors and most upregulated genes [3] |
| --- | --- | --- | --- | --- | --- |
| O=c1cc(CNc2ccc(Br)cc2)nc2sccn12 [LK56] | dose-dependent rescue | not activated | abolished compound rescue | completely abolish LK56-dependent rescue | – |
| CNC(=O)Oc1c(Br)cc2sc(=O)oc2c1Br [LK34] | dose-dependent rescue | induced gst-4p::GFP | – | – | rescue was unchanged |
| CCN(CC)/N=N/c1ccc(C(=O)O)cc1 [LK35] | – | – | – | no effect | rescue was unchanged |
| COC(=O)/C=C/C(=O)Nc1ccccc1 [LK32] | – | induced gst-4p::GFP | – | – | – |
| CN(C)/N=N/c1ccc(-c2cn(Cc3ccccc3)cn2)cc1 [LK38] | dose-dependent rescue | – | – | no effect | rescue was unchanged |

Reference: PMC7845594, “Novel Immune Modulators Enhance Caenorhabditis elegans Resistance to Multiple Pathogens” (mSphere, 2021)
